The subject of test [1] is TFEB. Briefly: TFEB Nuclear Translocation Assay. The test is classed as cell-based. As to conditions: read-out: EC50 of TFEB activation.
The subject of test [2] is TRPML-like current (IML-L). The following applies: ML4 (ML1−/−) human fibroblasts; cited from earlier work.
Test [3] deals with T1, TRPML-like current (IML-L) (Homo sapiens, UniProt Q9GZU1).
T1 construct: endogenous in cells; host or cells: human fibroblasts (WT ML1+/+; ML4 ML1-/- as negative control)
As to conditions: wild-type (WT; ML1+/+) human fibroblasts; cited from earlier work.

In test [4] the target is T2, TRPML3 (Homo sapiens, UniProt Q8TDD5).
T2 sequence (Q8TDD5 1-553): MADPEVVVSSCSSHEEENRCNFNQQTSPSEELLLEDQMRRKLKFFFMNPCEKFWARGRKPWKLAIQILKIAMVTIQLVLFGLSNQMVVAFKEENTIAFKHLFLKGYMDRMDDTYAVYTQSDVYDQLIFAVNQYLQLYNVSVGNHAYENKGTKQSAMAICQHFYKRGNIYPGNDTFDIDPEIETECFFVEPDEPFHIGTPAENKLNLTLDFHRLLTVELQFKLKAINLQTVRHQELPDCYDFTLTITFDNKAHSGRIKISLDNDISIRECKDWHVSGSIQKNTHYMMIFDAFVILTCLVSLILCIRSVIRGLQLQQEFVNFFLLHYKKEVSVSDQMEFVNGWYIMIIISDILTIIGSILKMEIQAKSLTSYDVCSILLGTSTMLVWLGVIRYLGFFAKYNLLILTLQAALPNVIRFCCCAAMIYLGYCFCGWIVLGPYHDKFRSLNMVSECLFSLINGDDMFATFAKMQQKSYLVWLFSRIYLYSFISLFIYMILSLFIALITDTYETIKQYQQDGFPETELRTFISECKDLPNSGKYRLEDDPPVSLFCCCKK
The following applies: cited from earlier work.

For test [5], the target named is T3, TRPML2 (Homo sapiens, UniProt Q8IZK6).
T3 sequence (Q8IZK6 1-566): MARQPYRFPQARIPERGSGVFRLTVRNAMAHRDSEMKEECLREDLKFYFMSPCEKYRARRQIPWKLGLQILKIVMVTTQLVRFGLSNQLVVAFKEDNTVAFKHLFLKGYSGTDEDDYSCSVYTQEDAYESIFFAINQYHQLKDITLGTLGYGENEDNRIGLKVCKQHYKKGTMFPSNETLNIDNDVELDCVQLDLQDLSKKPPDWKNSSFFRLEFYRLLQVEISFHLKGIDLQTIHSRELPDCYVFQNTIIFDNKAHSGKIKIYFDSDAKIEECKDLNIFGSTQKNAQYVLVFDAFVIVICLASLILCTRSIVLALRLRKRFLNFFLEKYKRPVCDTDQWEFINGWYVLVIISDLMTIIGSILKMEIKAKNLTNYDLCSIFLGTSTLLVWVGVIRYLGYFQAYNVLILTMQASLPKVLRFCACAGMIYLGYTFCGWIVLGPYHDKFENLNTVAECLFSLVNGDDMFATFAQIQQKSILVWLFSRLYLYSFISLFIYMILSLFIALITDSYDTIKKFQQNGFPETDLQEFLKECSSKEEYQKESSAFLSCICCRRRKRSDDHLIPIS
The following applies: cited from earlier work.

Test [6] has as its system TRPML1. As to conditions: cited from earlier work.
Test [7] has as its system TRPMLs. As to conditions: cited from earlier work.
Test [8] deals with T4, ML1-4A (Homo sapiens, UniProt Q9GZU1, L15A/L16A).
T4 construct: host or cells: HEK293 (stably or transiently transfected)
The following applies: HEK293 cells stably or transiently expressing ML1-4A; cited from earlier work.

T1 sequence (Q9GZU1 whole entry): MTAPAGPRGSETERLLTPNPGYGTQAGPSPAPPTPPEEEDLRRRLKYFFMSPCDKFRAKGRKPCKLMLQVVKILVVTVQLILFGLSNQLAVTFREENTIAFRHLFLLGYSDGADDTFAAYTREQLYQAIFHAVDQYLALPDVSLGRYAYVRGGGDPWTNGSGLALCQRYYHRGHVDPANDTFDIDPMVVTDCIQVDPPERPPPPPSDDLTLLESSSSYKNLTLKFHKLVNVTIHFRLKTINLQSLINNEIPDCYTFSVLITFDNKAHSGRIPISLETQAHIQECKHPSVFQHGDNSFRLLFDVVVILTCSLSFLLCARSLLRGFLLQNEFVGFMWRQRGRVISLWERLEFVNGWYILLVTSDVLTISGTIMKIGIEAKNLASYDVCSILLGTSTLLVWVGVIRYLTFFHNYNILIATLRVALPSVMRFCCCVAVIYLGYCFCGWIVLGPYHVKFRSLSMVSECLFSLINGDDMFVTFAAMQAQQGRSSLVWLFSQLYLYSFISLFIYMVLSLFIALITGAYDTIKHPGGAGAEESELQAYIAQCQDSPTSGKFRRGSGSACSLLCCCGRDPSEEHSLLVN
T4 sequence (Q9GZU1 with tags, fused parts or gaps L15A/L16A limits assumed): as the sequence (Q9GZU1 whole entry) above, with L15A, L16A, L577A, L578A counted along it

Turning to `CC(C)S(=O)(=O)n1ccc(S(=O)(=O)n2nc(N3CCCC3C(F)(F)F)c3c(Cl)cc(F)cc32)c1` (stereo not shown) [Compound 184, 4-chloro-6-fluoro-1-(1-isopropylsulfonylpyrrol-3-yl)sulfonyl-3-[2-(trifluoromethyl)pyrrolidin-1-yl]indazole], in test [1], the 50% effective concentration (EC50) (commonly the concentration at which the effect is half-maximal) is at most 1000 nM. For `CC(C)S(=O)(=O)n1ccc(S(=O)(=O)n2nc(N3CCN(c4ncc(F)cn4)CC3(C)C)c3c(Cl)cc(F)cc32)c1` [Compound 185, 4-chloro-6-fluoro-3-[4-(5-fluoropyrimidin-2-yl)-2,2-dimethyl-piperazin-1-yl]-1-(1-isopropylsulfonylpyrrol-3-yl) sulfonyl-indazole], the EC50 in test [1] was at most 1000 nM. For the molecule `CC(C)S(=O)(=O)n1ccc(S(=O)(=O)n2nc(N3CCC(N(C)C)CC34CC4)c3c(Cl)cc(F)cc32)c1` (stereo not shown) [Compound 186, 4-[4-chloro-6-fluoro-1-(1-isopropylsulfonylpyrrol-3-yl)sulfonyl-indazol-3-yl]-N, N-dimethyl-4-azaspiro [2.5]octan-7-amine], the EC50 in test [1] was in the range of 1000 to 10000 nM. Regarding `CC(C)S(=O)(=O)n1ccc(S(=O)(=O)n2nc(N3CCC(=O)CC34CC4)c3c(Cl)cc(F)cc32)c1` [Compound 187, 4-[4-chloro-6-fluoro-1-(1-isopropylsulfonylpyrrol-3-yl)sulfonyl-indazol-3-yl]-4-azaspiro [2.5]octan-7-one], the half-maximal effective concentration (EC50) in test [1] is at most 1000 nM.

Consider `CC(C)S(=O)(=O)n1ccc(S(=O)(=O)n2nc(N3CCCC34CC4)c3c(Cl)cc(F)cc32)c1` [Compound 188, 3-(4-azaspiro [2.4]heptan-4-yl)-4-chloro-6-fluoro-1-(1-isopropylsulfonylpyrrol-3-yl) sulfonyl-indazole], for which the EC50 in test [1] was at most 1000 nM.

For `CC(C)S(=O)(=O)n1ccc(S(=O)(=O)n2nc(N3CCC34CCC4)c3c(Cl)cc(F)cc32)c1` [Compound 189, 3-(1-azaspiro [3.3]heptan-1-yl)-4-chloro-6-fluoro-1-(1-isopropylsulfonylpyrrol-3-yl) sulfonyl-indazole], the EC50 in test [1] is at most 1000 nM. As for `CC(C)S(=O)(=O)n1ccc(S(=O)(=O)n2nc(N3CCOCC34CC4)c3c(Cl)cc(F)cc32)c1` [Compound 190, 4-[4-chloro-6-fluoro-1-(1-isopropylsulfonylpyrrol-3-yl)sulfonyl-indazol-3-yl]-7-oxa-4-azaspiro [2.5]octane], the 50% effective concentration (EC50) in test [1] is at most 1000 nM. Still for that read-out and setting: with `CC(C)S(=O)(=O)n1ccc(S(=O)(=O)n2nc(N3CCC(F)(F)CC34CC4)c3c(Cl)cc(F)cc32)c1` [Compound 191, 4-chloro-3-(7,7-difluoro-4-azaspiro [2.5]octan-4-yl)-6-fluoro-1-(1-isopropylsulfonylpyrrol-3-yl) sulfonyl-indazole] the figure was at most 1000 nM; with `CC(C)S(=O)(=O)n1ccc(S(=O)(=O)n2nc(N3CCC(F)CC34CC4)c3c(Cl)cc(F)cc32)c1` (stereo not shown) [Compound 192, 4-chloro-6-fluoro-3-(7-fluoro-4-azaspiro [2.5]octan-4-yl)-1-(1-isopropylsulfonylpyrrol-3-yl) sulfonyl-indazole], at most 1000 nM; with `CC(C)S(=O)(=O)c1nc(S(=O)(=O)n2nc(N3CCN(c4ncc(Cl)cc4F)CC34CC4)c3c(F)ccc(F)c32)cs1` [Compound 193, 4-[3-[7-(5-chloro-3-fluoro-2-pyridyl)-4,7-diazaspiro [2.5]octan-4-yl]-4,7-difluoro-indazol-1-yl]sulfonyl-2-isopropylsulfonyl-thiazole], 1000 to 10000 nM.

Take `CC(C)S(=O)(=O)c1nc(S(=O)(=O)n2nc(N3CCN(c4ncc(F)cc4F)CC34CC4)c3c(F)ccc(F)c32)cs1` [Compound 194, 4-[3-[7-(3,5-difluoro-2-pyridyl)-4,7-diazaspiro [2.5]octan-4-yl]-4,7-difluoro-indazol-1-yl]sulfonyl-2-isopropylsulfonyl-thiazole]: the concentration giving a half-maximal response (EC50) in test [1] lay within 1000 to 10000 nM. As to `CC(C)S(=O)(=O)c1nc(S(=O)(=O)n2nc(N3CCN(c4ncc(F)cn4)CC34CC4)c3c(F)ccc(F)c32)cs1` [Compound 195, 4-((4,7-difluoro-3-(7-(5-fluoropyrimidin-2-yl)-4,7-diazaspiro 12.51 octan-4-yl)-1H-indazol-1-yl)sulfonyl)-2-(isopropylsulfonyl) thiazole], the concentration for a half-maximal effect (EC50) in test [1] lay in the range of 1000 to 10000 nM. For `CC(C)S(=O)(=O)c1nc(S(=O)(=O)n2nc(N3CCN(c4ncc(Cl)cc4F)CC34CC4)c3c(Cl)cccc32)cs1` [Compound 196, 4-((4-chloro-3-(7-(5-chloro-3-fluoropyridin-2-yl)-4,7-diazaspiro [2.5]octan-4-yl)-1H-indazol-1-yl)sulfonyl)-2-(isopropylsulfonyl) thiazole], the EC50 in test [1] is at most 1000 nM.

As to `CC(C)S(=O)(=O)c1nc(S(=O)(=O)n2nc(N3CCN(c4ncc(F)cc4F)CC34CC4)c3c(Cl)cc(F)cc32)cs1` [Compound 197, 4-[4-chloro-3-[7-(3,5-difluoro-2-pyridyl)-4,7-diazaspiro [2.5]octan-4-yl]-6-fluoro-indazol-1-yl]sulfonyl-2-isopropylsulfonyl-thiazole], the EC50 in test [1] fell in the range of 1000 to 10000 nM. For the molecule `CC(C)S(=O)(=O)c1nc(S(=O)(=O)n2nc(N3CCN(c4ncc(F)cc4F)CC34CC4)c3c(F)cc(F)cc32)cs1` [Compound 198, 4-((3-(7-(3,5-difluoropyridin-2-yl)-4,7-diazaspiro [2.5]octan-4-yl)-4,6-difluoro-1H-indazol-1-yl)sulfonyl)-2-(isopropylsulfonyl) thiazole], the EC50 in test [1] lay in the range of 1000 to 10000 nM. Still for that read-out and setting: under `CC(C)S(=O)(=O)n1ccc(S(=O)(=O)n2nc(N3CCN(c4ncc(F)cc4F)CC34CC4)c3c(Cl)cc(F)cc32)n1` [Compound 199, 4-chloro-3-[7-(3,5-difluoro-2-pyridyl)-4,7-diazaspiro [2.5]octan-4-yl]-6-fluoro-1-(1-isopropylsulfonylpyrazol-3-yl) sulfonyl-indazole] stands at most 1000 nM. For `CC(C)S(=O)(=O)n1cnc(S(=O)(=O)n2nc(N3CCN(c4ncc(F)cc4F)CC34CC4)c3c(F)cc(F)cc32)n1` [Compound 200, 3-(7-(3,5-difluoropyridin-2-yl)-4,7-diazaspiro [2.5]octan-4-yl)-4,6-difluoro-1-((1-(isopropylsulfonyl)-1H−1,2,4-triazol-3-yl)sulfonyl)-1H-indazole], the EC50 in test [1] was at least 10000 nM. `CC1CC(C)(C)N(C(=O)CN2C(=O)c3ccccc3C2=O)c2ccccc21` (stereo not shown) [ML-SA1]: the “activation of whole-endolysosome IML-L” value in test [2] is “not”; in test [3] it was “activated”. Moreover, the “activation of whole-cell ITRPML3” value in test [4] was “activated”. Moreover, the “activation of whole-cell ITRPML2” value in test [5] is recorded as “activated”. The “activation of whole-endolysosome IML1 compared with PI(3,5)P2” value in test [6] (ML-SA1 10 μM, PI(3,5)P2 1 μM) is “comparable to the effect of the endogenous TRPML agonist PI(3,5)P2 (1 μM)”. For the same molecule, in test [6], the “activation of whole-cell IML1-4A and whole-endolysosome IML1” value was “robustly activated”. Besides, in test [7], the “concentration needed to effectively activate TRPMLs” value was around 10 µM. Besides, in test [8], the “[Ca2+]cyt increases” value was “significant [Ca2+]cyt increases”.

These data come from patent US20250333406A1, “SULFONYL CYCLIC DERIVATIVES, AND COMPOSITIONS AND METHODS THEREOF” (Lysoway Therapeutics, Inc., priority 2023, published 2025).
